Source: ChEMBL document CHEMBL1143444, “Dual EGFR/ErbB-2 inhibitors from novel pyrrolidinyl-acetylenic thieno[3,2-d]pyrimidines” (Bioorg Med Chem Lett, 2008)

Legend:
Mus musculus = experiment: Dose normalized AUC in po dosed mouse; assay type: ADME, organism-based; conditions: in vivo
BT-474 = experiment: Antiproliferative activity against human BT474 cells overexpressing ErbB2 after 3 days by methylene blue staining; conditions: BT-474, 72 h
[1] = biological target: Receptor tyrosine-protein kinase erbB-2 (Homo sapiens, UniProt P04626)
Receptor tyrosine-protein kinase erbB-2, sequence (P04626 whole entry): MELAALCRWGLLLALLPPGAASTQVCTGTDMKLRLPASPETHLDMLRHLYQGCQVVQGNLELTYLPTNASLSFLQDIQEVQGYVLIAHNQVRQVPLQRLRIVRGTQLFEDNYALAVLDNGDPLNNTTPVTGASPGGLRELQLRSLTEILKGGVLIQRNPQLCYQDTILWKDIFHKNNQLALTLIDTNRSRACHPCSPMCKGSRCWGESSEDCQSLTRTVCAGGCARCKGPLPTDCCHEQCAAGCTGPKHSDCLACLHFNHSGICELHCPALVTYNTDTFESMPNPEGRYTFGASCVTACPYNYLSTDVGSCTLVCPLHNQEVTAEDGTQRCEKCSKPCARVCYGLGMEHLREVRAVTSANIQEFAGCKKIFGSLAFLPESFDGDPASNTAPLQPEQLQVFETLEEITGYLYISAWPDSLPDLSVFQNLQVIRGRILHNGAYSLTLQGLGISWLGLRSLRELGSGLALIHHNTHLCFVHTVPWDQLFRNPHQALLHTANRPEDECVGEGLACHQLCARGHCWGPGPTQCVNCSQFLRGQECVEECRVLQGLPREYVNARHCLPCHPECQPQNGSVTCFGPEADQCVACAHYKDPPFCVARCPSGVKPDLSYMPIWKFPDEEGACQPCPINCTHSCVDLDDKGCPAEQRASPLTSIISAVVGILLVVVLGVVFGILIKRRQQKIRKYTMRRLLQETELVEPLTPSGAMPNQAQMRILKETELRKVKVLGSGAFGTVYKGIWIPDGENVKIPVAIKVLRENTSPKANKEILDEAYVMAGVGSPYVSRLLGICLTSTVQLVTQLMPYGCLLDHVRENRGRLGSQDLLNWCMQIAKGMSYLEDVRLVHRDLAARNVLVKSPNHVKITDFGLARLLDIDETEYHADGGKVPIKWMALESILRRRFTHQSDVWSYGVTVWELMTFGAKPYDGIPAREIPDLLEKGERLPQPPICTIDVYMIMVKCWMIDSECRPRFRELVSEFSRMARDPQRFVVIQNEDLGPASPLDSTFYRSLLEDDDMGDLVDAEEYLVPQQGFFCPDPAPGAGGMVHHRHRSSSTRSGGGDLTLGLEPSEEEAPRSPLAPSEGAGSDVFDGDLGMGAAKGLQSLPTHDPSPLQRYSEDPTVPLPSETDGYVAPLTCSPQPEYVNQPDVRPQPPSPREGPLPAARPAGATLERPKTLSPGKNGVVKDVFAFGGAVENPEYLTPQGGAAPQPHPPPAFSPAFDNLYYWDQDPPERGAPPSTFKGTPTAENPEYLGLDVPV
Description: Inhibition of ErbB2 kinase

HN5 = experiment: Antiproliferative activity against human HN5 cells overexpressing EGFR after 3 days by methylene blue staining; conditions: HN5, 72 h
[2] = Antiproliferative activity against human foreskin fibroblast after 3 days by methylene blue staining; conditions: 72 h
[3] = biological target: Epidermal growth factor receptor (Homo sapiens, UniProt P00533); experiment: Inhibition of EGFR kinase
Epidermal growth factor receptor, sequence (P00533 whole entry): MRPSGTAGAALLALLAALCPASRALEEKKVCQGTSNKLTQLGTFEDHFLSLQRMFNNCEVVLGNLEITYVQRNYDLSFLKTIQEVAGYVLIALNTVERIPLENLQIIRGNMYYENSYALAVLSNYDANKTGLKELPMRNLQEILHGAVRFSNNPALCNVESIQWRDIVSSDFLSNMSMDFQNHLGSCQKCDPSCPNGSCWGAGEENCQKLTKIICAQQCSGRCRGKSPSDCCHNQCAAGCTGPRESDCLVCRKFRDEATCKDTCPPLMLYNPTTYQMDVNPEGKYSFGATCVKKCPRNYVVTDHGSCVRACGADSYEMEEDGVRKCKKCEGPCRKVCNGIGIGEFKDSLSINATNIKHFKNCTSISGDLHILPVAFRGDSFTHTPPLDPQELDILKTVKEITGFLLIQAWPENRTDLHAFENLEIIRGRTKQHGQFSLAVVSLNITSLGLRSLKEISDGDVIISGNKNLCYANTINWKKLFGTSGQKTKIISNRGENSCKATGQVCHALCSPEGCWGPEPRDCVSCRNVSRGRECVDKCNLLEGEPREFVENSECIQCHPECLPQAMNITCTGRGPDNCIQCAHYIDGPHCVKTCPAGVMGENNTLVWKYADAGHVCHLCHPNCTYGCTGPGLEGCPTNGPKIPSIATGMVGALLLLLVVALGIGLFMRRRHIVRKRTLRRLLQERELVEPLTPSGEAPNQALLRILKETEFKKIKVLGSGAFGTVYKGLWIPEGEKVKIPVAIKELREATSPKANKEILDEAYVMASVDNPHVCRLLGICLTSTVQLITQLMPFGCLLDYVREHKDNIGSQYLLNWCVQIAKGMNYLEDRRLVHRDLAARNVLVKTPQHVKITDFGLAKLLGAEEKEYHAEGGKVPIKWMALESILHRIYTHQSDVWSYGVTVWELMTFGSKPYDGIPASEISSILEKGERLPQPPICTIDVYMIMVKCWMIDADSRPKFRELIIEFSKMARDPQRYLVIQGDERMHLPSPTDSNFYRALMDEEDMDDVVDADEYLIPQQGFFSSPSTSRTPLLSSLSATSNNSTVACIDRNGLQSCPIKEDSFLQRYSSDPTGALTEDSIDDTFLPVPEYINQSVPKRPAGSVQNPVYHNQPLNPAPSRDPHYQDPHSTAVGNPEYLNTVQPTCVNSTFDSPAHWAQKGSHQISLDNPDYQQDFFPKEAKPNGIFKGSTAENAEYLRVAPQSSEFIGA

| Compound | AUC (Mus musculus) | IC50 (BT-474) | IC50 [1] | IC50 [3] | IC50 (HN5) | IC50 [2] |
| --- | --- | --- | --- | --- | --- | --- |
| CS(=O)(=O)N1CCC[C@@H]1C#Cc1cc2ncnc(Nc3ccc(OCc4cccc(F)c4)c(Cl)c3)c2s1 |  | 0.65 µM | 0.088 µM | 0.12 µM | 0.55 µM | > 1 µM |
| CC(=O)N1CCC[C@@H]1C#Cc1cc2ncnc(Nc3ccc(OCc4cccc(F)c4)c(Cl)c3)c2s1 |  | 0.67 µM | 0.038 µM | 0.058 µM | 0.037 µM | > 1 µM |
| CCO[C@H]1CN[C@H](C#Cc2cc3ncnc(Nc4ccc(OCc5cccc(F)c5)c(Cl)c4)c3s2)C1 |  | 0.045 µM | 0.098 µM | 0.115 µM | 0.099 µM | > 1 µM |
| CS(=O)(=O)O[C@H]1CN[C@H](C#Cc2cc3ncnc(Nc4ccc(OCc5cccc(F)c5)c(Cl)c4)c3s2)C1 |  | 0.086 µM | 0.04 µM | 0.081 µM | 0.38 µM | > 1 µM |
| CCOC(=O)O[C@H]1CN[C@H](C#Cc2cc3ncnc(Nc4ccc(OCc5cccc(F)c5)c(Cl)c4)c3s2)C1 |  | 0.034 µM | 0.135 µM | 0.141 µM | 0.2 µM | > 1 µM |
| CCNC(=O)O[C@H]1CN[C@H](C#Cc2cc3ncnc(Nc4ccc(OCc5cccc(F)c5)c(Cl)c4)c3s2)C1 [GSK-192082A] | 61 ng·kg·h/mg/mL | 0.03 µM |  | 0.032 µM | 0.095 µM | > 1 µM |
| O=C(O[C@H]1CN[C@H](C#Cc2cc3ncnc(Nc4ccc(OCc5cccc(F)c5)c(Cl)c4)c3s2)C1)N1CCOCC1 [GW869810X] |  | 0.03 µM |  |  |  | > 1 µM |

Now from value to compound, other results behind:

| AUC (Mus musculus) | IC50 (BT-474) | IC50 [1] | IC50 [3] | Compound | IC50 (HN5) | IC50 [2] |
| --- | --- | --- | --- | --- | --- | --- |
| 18 ng·kg·h/mg/mL | 0.028 µM | 0.02 µM | 0.05 µM | CNC(=O)O[C@H]1CN[C@H](C#Cc2cc3ncnc(Nc4ccc(OCc5cccc(F)c5)c(Cl)c4)c3s2)C1 | 0.058 µM | > 1 µM |
|  | 0.205 µM | 0.054 µM | 0.109 µM | Fc1cccc(COc2ccc(Nc3ncnc4cc(C#C[C@@H]5CCCN5)sc34)cc2Cl)c1 | 0.536 µM | > 1 µM |
|  | 0.094 µM |  |  | Fc1cccc(COc2ccc(Nc3ncnc4cc(C#C[C@H]5CCCN5)sc34)cc2Cl)c1 | 0.238 µM | > 1 µM |
|  | 1.7 µM | 0.12 µM | 0.14 µM | COC(=O)N1CCC[C@@H]1C#Cc1cc2ncnc(Nc3ccc(OCc4cccc(F)c4)c(Cl)c3)c2s1 | 0.59 µM | > 1 µM |
| 9 ng·kg·h/mg/mL | 0.039 µM | 0.011 µM |  | O[C@H]1CN[C@H](C#Cc2cc3ncnc(Nc4ccc(OCc5cccc(F)c5)c(Cl)c4)c3s2)C1 |  | > 1 µM |
|  | 0.018 µM | 0.09 µM | 0.063 µM | CCC(=O)O[C@H]1CN[C@H](C#Cc2cc3ncnc(Nc4ccc(OCc5cccc(F)c5)c(Cl)c4)c3s2)C1 | 0.052 µM | > 1 µM |
|  | 0.042 µM |  | 0.05 µM | CCS(=O)(=O)N[C@H]1CN[C@H](C#Cc2cc3ncnc(Nc4ccc(OCc5cccc(F)c5)c(Cl)c4)c3s2)C1 | 0.127 µM | > 1 µM |
|  |  |  | 0.13 µM | COCCN1CCC[C@@H]1C#Cc1cc2ncnc(Nc3ccc(OCc4cccc(F)c4)c(Cl)c3)c2s1 | 0.19 µM | > 1 µM |
|  | 0.04 µM | 0.078 µM | 0.06 µM | CCOC(=O)N[C@H]1CN[C@H](C#Cc2cc3ncnc(Nc4ccc(OCc5cccc(F)c5)c(Cl)c4)c3s2)C1 | 0.113 µM | > 1 µM |
|  | 0.03 µM |  |  | CN(C)C(=O)O[C@H]1CN[C@H](C#Cc2cc3ncnc(Nc4ccc(OCc5cccc(F)c5)c(Cl)c4)c3s2)C1 [GSK-182497A] |  | > 1 µM |
